Experimental data taken from PMC9765439, “Systems-Wide Dissection of Organic Acid Assimilation in Pseudomonas aeruginosa Reveals a Novel Path To Underground Metabolism” (mBio, 2022).

Assays:
[1] = molecular target: T1, GltAPa (citrate synthase) (Pseudomonas aeruginosa, UniProt P14165); assay: DTNB (TNB release) spectrophotometric assay, […] nm; format: biochemical; conditions: 0.5 mM oxaloacetate; 50 mM HEPES pH 7.5, 0.1 M KCl, 0.54 M glycerol; 37 °C
T1 construct: gene gltA; full-length ORF, 429 aa; pET-19m, N-terminal TEV-cleavable His6 tag, cut; E. coli host; hexamer in asymmetric unit
T1 sequence (P14165 1-428): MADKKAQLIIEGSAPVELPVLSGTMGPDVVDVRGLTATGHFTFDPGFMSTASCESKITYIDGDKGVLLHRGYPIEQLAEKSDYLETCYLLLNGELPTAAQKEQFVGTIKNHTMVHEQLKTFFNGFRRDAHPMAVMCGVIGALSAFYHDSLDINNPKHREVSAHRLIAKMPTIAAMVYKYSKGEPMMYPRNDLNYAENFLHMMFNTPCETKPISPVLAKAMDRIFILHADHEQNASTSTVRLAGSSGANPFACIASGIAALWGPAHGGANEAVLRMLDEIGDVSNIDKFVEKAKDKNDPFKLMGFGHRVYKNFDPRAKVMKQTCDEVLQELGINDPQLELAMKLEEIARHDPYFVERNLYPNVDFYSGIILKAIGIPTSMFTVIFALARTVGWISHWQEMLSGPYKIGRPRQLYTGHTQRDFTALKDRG

[2] = molecular target: T2, PrpCPa (2-methylcitrate synthase, 2-MCS) (Pseudomonas aeruginosa, UniProt Q9I5E3); assay: X-ray crystallography; format: binding; conditions: 2.5 mM oxaloacetate in crystallisation, Bis-Tris pH 5.5; active site of chain D only
T2 construct: gene prpC; pET-19m, N-terminal TEV-cleavable His6 tag, cut; E. coli host; homodimer
T2 sequence (Q9I5E3 1-375): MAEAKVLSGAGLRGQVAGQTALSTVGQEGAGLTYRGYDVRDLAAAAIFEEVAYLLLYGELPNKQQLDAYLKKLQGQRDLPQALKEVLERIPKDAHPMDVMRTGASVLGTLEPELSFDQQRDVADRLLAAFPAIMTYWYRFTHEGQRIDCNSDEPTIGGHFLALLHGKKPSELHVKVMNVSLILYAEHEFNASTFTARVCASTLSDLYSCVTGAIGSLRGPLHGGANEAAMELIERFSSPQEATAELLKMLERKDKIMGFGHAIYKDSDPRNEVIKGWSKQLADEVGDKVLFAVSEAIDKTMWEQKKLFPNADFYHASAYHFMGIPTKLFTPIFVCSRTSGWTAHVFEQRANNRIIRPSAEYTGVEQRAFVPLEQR

With `CC(=O)SCCNC(=O)CCNC(=O)[C@H](O)C(C)(C)COP(=O)(O)OP(=O)(O)OC[C@H]1O[C@@H](n2cnc3c(N)ncnc32)[C@H](O)[C@@H]1OP(=O)(O)O` [acetyl-CoA] the “DTNB (TNB release) spectrophotometric assay, 412 nm” value [1] was “Purified GltAPa is a citrate synthase with no detectable 2-methylcitrate synthase activity”.
For `O=C(O)CC(=O)C(=O)O` [oxaloacetate], the X-ray crystallography [2] was “Crystal structure of oxaloacetate-bound PrpCPa represented in cartoon (PDB: 6S87)”.
